Experimental data published in PubChem BioAssay (NCI).
Where “and” joins values, the source holds several entries; their conditions need not be identical. Equal values may be shown once.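 Assay format: 96-well plates, 48-hour exposure. GI50: concentration for 50% inhibition of growth. TGI denotes the concentration required for complete inhibition of growth.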

What was measured:
Experiment in all cases: DTP human tumour cell line panel, 48 h
[1] = test system: 786-0 renal
[2] = test system: A498 renal
[3] = test system: A549 NSCLC
[4] = test system: ACHN renal
[5] = test system: BT-549 breast
[6] = test system: CAKI-1 renal
[7] = test system: CCRF-CEM leukemia
[8] = test system: COLO 205 colon
[9] = test system: DU-145 prostate
[10] = test system: EKVX NSCLC
[11] = test system: HCC-2998 colon
[12] = test system: HCT-116 colon
[13] = test system: HCT-15 colon
[14] = test system: HL-60(TB) leukemia
[15] = test system: HOP-62 NSCLC
[16] = test system: HOP-92 NSCLC
[17] = test system: HS 578T breast
[18] = test system: HT29 colon
[19] = test system: IGROV1 ovarian
[20] = test system: K-562 leukemia
[21] = test system: KM12 colon
[22] = test system: LOX IMVI melanoma
[23] = test system: M14 melanoma
[24] = test system: MCF7 breast
[25] = test system: MDA-MB-231 breast
[26] = test system: MDA-MB-435
[27] = test system: MDA-N
[28] = test system: MOLT-4 leukemia
[29] = test system: NCI-H226 lung
[30] = test system: NCI-H23 lung
[31] = test system: NCI-H460 lung
[32] = test system: NCI-H522 lung
[33] = test system: NCI/ADR-RES ovarian
[34] = test system: OVCAR-3 ovarian
[35] = test system: OVCAR-4 ovarian
[36] = test system: OVCAR-5 ovarian
[37] = test system: OVCAR-8 ovarian
[38] = test system: PC-3 prostate
[39] = test system: RPMI-8226 leukemia
[40] = test system: RXF 393 renal
[41] = test system: SF-268 CNS
[42] = test system: SF-295 CNS
[43] = test system: SF-539 CNS
[44] = test system: SK-MEL-2 melanoma
[45] = test system: SK-MEL-28 melanoma
[46] = test system: SK-MEL-5 melanoma
[47] = test system: SK-OV-3 ovarian
[48] = test system: SN12C renal
[49] = test system: SNB-19 CNS
[50] = test system: SNB-75 CNS
[51] = test system: SW-620 colon
[52] = test system: T-47D breast
[53] = test system: TK-10 renal
[54] = test system: U251 CNS
[55] = test system: UACC-257 melanoma
[56] = test system: UACC-62 melanoma
[57] = test system: UO-31 renal
[58] = test system: MALME-3M melanoma

In the case of COC(=O)[C@H](Cc1ccccc1)NC(=O)[C@H](Cc1ccccc1)NC(=O)CN1C(=O)[C@@H]2C3C=CC(C3)[C@@H]2C1=O, the TGI [1] is reported as 27.2 µM and 28.8 µM, the TGI [2] is reported as 31.3 µM and 53 µM and the TGI [3] is reported as 45.9 µM and 44.1 µM. For the same compound, the TGI [4] was 29.7 µM and 30.4 µM, the TGI [5] was 32.1 µM and 30.2 µM and the TGI [6] was 30.6 µM and 35.1 µM. For the same compound, the GI50 [7] was 7.9 µM and 19.9 µM, the TGI [7] was 39.1 µM and 57.3 µM and the TGI [8] was 29.7 µM and 30.9 µM. For the same compound, the TGI [9] was 39.1 µM and 34.2 µM, the TGI [10] was 35.1 µM and 37.3 µM and the TGI [11] was 30.8 µM and 31 µM. The TGI [12] was 27.3 µM and 30.2 µM, the TGI [13] was 31.2 µM and 33.1 µM and the TGI [14] was 40.8 µM and 33.5 µM. The TGI [15] was 38.5 µM and 39.8 µM, the TGI [16] was 33.3 µM and 36.1 µM and the TGI [17] was 38.2 µM and 38 µM. The TGI [18] was 38.4 µM and 42.1 µM, the TGI [19] was 25.5 µM and 30.4 µM and the GI50 [20] was 7.26 µM and 17.5 µM. For the same compound, the TGI [20] was 36.2 µM and 42.2 µM, the TGI [21] was 33.9 µM and 41.7 µM and the TGI [22] was 33.3 µM and 32.2 µM. The TGI [23] was 41.4 µM and 40.4 µM, the TGI [24] was 34.1 µM and 31.7 µM and the TGI [25] was 31.5 µM and 32.4 µM. For the same compound, the TGI [26] was 28.7 µM and 32 µM, the TGI [27] was 30.2 µM and 30.9 µM and the TGI [28] was 5.2 µM and 8.67 µM. The TGI [29] was 38.5 µM and 39.1 µM, the TGI [30] was 32.1 µM and 33 µM and the TGI [31] was 42.6 µM and 46.3 µM. The TGI [32] was 27.8 µM and 31.8 µM, the TGI [33] was 53.9 µM and > 100 µM and the TGI [34] was 33.1 µM and 37 µM. For the same compound, the TGI [35] was 31.2 µM and 37.5 µM, the TGI [36] was 43.1 µM and 41.7 µM and the TGI [37] was 27.9 µM and 33.8 µM. The TGI [38] was 29 µM and 30 µM, the TGI [39] was 38.3 µM and 52 µM and the TGI [40] was 36.2 µM and 35 µM. For the same compound, the TGI [41] was 26.3 µM and 31.5 µM, the TGI [42] was 35.5 µM and 36.6 µM and the TGI [43] was 32 µM and 33.3 µM. The TGI [44] was 33 µM and 34.5 µM, the TGI [45] was 35 µM and 35.7 µM and the TGI [46] was 28.3 µM and 32.1 µM. For the same compound, the TGI [47] was 31.7 µM, the TGI [48] was 32.9 µM and 30.6 µM and the TGI [49] was 36.6 µM and 39.9 µM. The TGI [50] was 34 µM and 33.7 µM, the TGI [51] was 40.8 µM and 48.5 µM and the TGI [52] was 47.2 µM and 49 µM. For the same compound, the TGI [53] was 31.2 µM and 38.6 µM, the TGI [54] was 30 µM and 33.2 µM and the TGI [55] was 30.9 µM and 33.6 µM. The TGI [56] was 30 µM and 30.2 µM and the TGI [57] was 42.3 µM and 32.1 µM.
O=[N+]([O-])C(=C1NCCN1)/C(Cl)=C(/Cl)N1CCOCC1 was tested, and the TGI [1] was greater than 100 µM, the TGI [2] was greater than 100 µM and the TGI [3] was greater than 100 µM. The TGI [4] was greater than 100 µM, the TGI [5] was greater than 100 µM and the TGI [6] was greater than 100 µM. It also gave a TGI [7] greater than 100 µM, a TGI [8] greater than 100 µM and a TGI [9] greater than 100 µM. It also gave a TGI [10] greater than 100 µM, a TGI [11] greater than 100 µM and a TGI [12] greater than 100 µM. For the same compound, the TGI [13] was greater than 100 µM, the TGI [15] was greater than 100 µM and the TGI [17] was greater than 100 µM. It also gave a TGI [18] greater than 100 µM, a TGI [20] greater than 100 µM and a TGI [21] greater than 100 µM. It also gave a TGI [23] greater than 100 µM, a TGI [58] greater than 100 µM and a TGI [24] greater than 100 µM. For the same compound, the TGI [25] was greater than 100 µM, the TGI [26] was greater than 100 µM and the TGI [27] was greater than 100 µM. It also gave a TGI [28] greater than 100 µM, a TGI [29] greater than 100 µM and a TGI [30] greater than 100 µM. It also gave a TGI [31] greater than 100 µM, a TGI [33] greater than 100 µM and a TGI [34] greater than 100 µM. For the same compound, the TGI [35] was greater than 100 µM, the TGI [36] was greater than 100 µM and the TGI [37] was greater than 100 µM. For the same compound, the TGI [38] was greater than 100 µM, the TGI [39] was greater than 100 µM and the TGI [41] was greater than 100 µM. The TGI [42] was greater than 100 µM, the TGI [43] was greater than 100 µM and the TGI [44] was greater than 100 µM. The TGI [45] was greater than 100 µM, the TGI [47] was greater than 100 µM and the TGI [48] was greater than 100 µM. For the same compound, the TGI [49] was greater than 100 µM, the TGI [50] was greater than 100 µM and the TGI [51] was greater than 100 µM. It also gave a TGI [52] greater than 100 µM, a TGI [54] greater than 100 µM and a TGI [55] greater than 100 µM. For the same compound, the TGI [56] was greater than 100 µM and the TGI [57] was greater than 100 µM.
Compound CC(NC(=O)C(C)C(=O)Nc1ccc(C(F)(F)F)cc1)C(N)=O (stereo not drawn) has a TGI [1] greater than 100 µM, a TGI [3] greater than 100 µM and a TGI [4] greater than 100 µM. It also gave a TGI [5] greater than 100 µM, a TGI [6] greater than 100 µM and a TGI [7] greater than 100 µM. For the same compound, the TGI [8] was greater than 100 µM, the TGI [9] was greater than 100 µM and the TGI [10] was greater than 100 µM. The TGI [12] was greater than 100 µM, the TGI [13] was greater than 100 µM and the TGI [14] was greater than 100 µM. It also gave a TGI [16] greater than 100 µM, a TGI [17] greater than 100 µM and a TGI [18] greater than 100 µM. The TGI [19] was greater than 100 µM, the TGI [20] was greater than 100 µM and the TGI [21] was greater than 100 µM. The TGI [23] was greater than 100 µM, the TGI [58] was greater than 100 µM and the TGI [24] was greater than 100 µM. The TGI [25] was greater than 100 µM, the TGI [26] was greater than 100 µM and the TGI [27] was greater than 100 µM. The TGI [29] was greater than 100 µM, the TGI [30] was greater than 100 µM and the TGI [31] was greater than 100 µM. The TGI [32] was greater than 100 µM, the TGI [33] was greater than 100 µM and the TGI [36] was greater than 100 µM. For the same compound, the TGI [37] was greater than 100 µM, the TGI [38] was greater than 100 µM and the TGI [39] was greater than 100 µM. The TGI [40] was greater than 100 µM, the TGI [41] was greater than 100 µM and the TGI [42] was greater than 100 µM. The TGI [43] was greater than 100 µM, the TGI [44] was greater than 100 µM and the TGI [46] was greater than 100 µM. It also gave a TGI [47] greater than 100 µM, a TGI [48] greater than 100 µM and a TGI [49] greater than 100 µM. It also gave a TGI [50] greater than 100 µM, a TGI [51] greater than 100 µM and a TGI [52] greater than 100 µM. For the same compound, the TGI [54] was greater than 100 µM, the TGI [55] was greater than 100 µM and the TGI [56] was greater than 100 µM. It also gave a TGI [57] greater than 100 µM.
